# Assay results as given in patent publication US20160264616A1, “THERAPEUTIC COMPOUNDS AND METHODS” (priority 2015, published 2016).
# Tested on: RGS17ΔN:Gαo interaction in HEK293T cells
# Experiment: RGS localization assay, GFP-RGS17ΔN co-transfected with hGαo in HEK293T cells
# Type: cell-based, human
# Details: for delocalization of RGS17ΔN from the membrane: 100 μM compound
# Method: HEK293T cells co-transfected with GFP-RGS17FL and human Gαo were treated with UI-5, UI-1590 and […] to determine if the compounds could disrupt the RGS17:Gαo interaction that could drive RGS17 to the membrane. […] To test this hypothesis, we constructed a GFP-RGS17 fusion protein with an N-terminal truncation, removing the cysteine-rich motif. […] As a negative control, we tested a known RGS4 inhibitor (CCG-50014) in this assay against RGS17ΔN (21). […] Finally, to ensure the localization was not due to the GFP tag, pAcGFP vector was co-transfected into HEK293T cells with hGαo. […] Cross-sectional fluorescence intensity analysis was used to quantify the intensity of signal at a cross section of the cell. Average signal at the membrane and in the cytoplasm were calculated and change in signal intensity was assessed between time zero and time final. […] Additionally, the control condition of CCG-50014 was subject to the same analyses as the lead compound.
# Twenty four (24) hours prior to plating, assay plates were coated with 30 μl poly-D-lysine per well. Human Embryonic Kidney 293T cells (HEK293T) were plated in to 96 well tissue culture treated glass bottom view plates (Perkin Elmer, Part No. 6005430) at a density of 25K cells per well. 24 hours post seeding, cells were transfected with hGαo in pCDNA 3.1(+), pAcGFPRGS17 FL, pAcGFP RGS17ΔN, empty pAcGFP, hGαo+pAcGFPRGS17 FL, hGαo+pAcGFP RGS17ΔN, or hGαo+empty pAcGFP vector using Lipofectamine 2000 (Life Technologies) as the transfection reagent and according to manufacture protocols. 24 hours post transfection, cell media was removed and replaced with […] serum free, phenol red free DMEM (Life Technologies, Ref No. 31053-028). Cells were then imaged using a Zeiss LSM510 confocal microscope (University of Iowa Central Microscopy Core). Images were analyzed using NIH Image J software and Graphpad Prism 6.
# Compounds at 2× final desired concentrations were diluted in serum free, phenol red free DMEM.
smiles,measurement,setting,value
"Cc1ccc(-n2sc(=O)n(Cc3ccc(F)cc3)c2=O)cc1 [CCG-50014, reference compound]",delocalization of RGS17ΔN from the membrane,,No delocalization was observed
same,delocalization of RGS17ΔN from the membrane,listed as 50014,did not result in RGS17ΔN delocalization
same,change of membrane and cytosolic fluorescence signal (Image J cross-section),time zero versus time final,no significant change of signal
